Laboratory results taken from ChEMBL document CHEMBL5131549, “Discovery of a High Affinity Adenosine A1/A3 Receptor Antagonist with a Novel 7-Amino-pyrazolo[3,4-d]pyridazine Scaffold” (ACS Med Chem Lett, 2022).

Key:
PC-3 = assay: cells; details: Homo sapiens
HCT-116 = assay: cells; details: Homo sapiens
[1] = Cytotoxicity against human WI-38 cells assessed as cell viability incubated for 72 to 96 hrs by MTT assay; assay type: toxicity, cell-based

| Structure (SMILES) | IC50 (PC-3) [µM] | IC50 (HCT-116) [µM] | IC50 [1] [µM] |
| --- | --- | --- | --- |
| CCNC(=O)[C@H]1O[C@@H](n2cnc3c(N)ncnc32)[C@H](O)[C@@H]1O [NECA] | > 10 | > 10 | > 10 |
| O=C(Cc1ccccc1)Nc1nc2ccc(Cl)cc2c2nc(-c3ccco3)nn12 | – | – | > 10 |
